Experimental data published in patent publication US4353923A, “Pharmaceutical composition containing a benzofurancarboxamide derivative as the active ingredient” (Kyowa Hakko Kogyo Co., Ltd., priority 1980, dated 1982).
Counter-ions that a name gives are not always drawn.

What was measured:
[1] = tested on: male dd mice; test: Muscle relaxant activity: traction test; type: in vivo; details: 5 mice per group
Description: (§1) In this example, 5 male dd mice weighing 20±1 g were used as one group. Prior to the experiments, mice were placed on the rod having a diameter of 3 cm and rotating at 5 r.p.m. in the reverse direction of the rotation. […] The drugs were orally administered and the muscle relaxant activity with the passage of time was examined by the following tests.
Traction test: Forefeet of the same mouse were placed on a wire to observe whether it falls or not.
(§2) In each test, the drug was considered to have a muscle relaxant activity when the mouse fell.

[2] = tested on: male dd mice; test: Anticonvulsant activity: maximal electroshock convulsion test; type: in vivo; details: Mus musculus, po, 1 h, 60 min after administration, read-out: Maximal electroshock convulsion test, inhibition ratio; for responders at 50 mg/kg: 50 mg/kg p.o.; for responders at 75 mg/kg: 75 mg/kg p.o.
Description: Anticonvulsant activity was examined according to maximal electroshock convulsion test.
In this experiment, 10 male dd mice weighing 23±1 g were used as one group. Each drug was orally administered to the animals. Sixty minutes after the administration, an electric current (2000 V, 50 mA) was applied to both eyes of the mouse for 0.2 second. Drug activity was judged according to whether tonic extensor seizures were observed or not.

[3] = in vivo; details: mouse, po, mice, deaths counted for 7 days
Procedure: In this example, 3-7 male dd mice weighing 20±1 g were used as one group. Each drug was suspended in a 0.3% CMC solution and orally administered. After the administration, number of dead animals was counted for 7 days to determine LD50 value. As the reference drugs, mepirizole and benzydamine hydrochloride were dissolved in water and orally administered. The drugs and the reference drugs were also administered in the same manner as above in Examples 2-5.

[4] = tested on: male dd mice; test: Muscle relaxant activity: rotating rod test; type: in vivo; details: 5 mice per group
Procedure: as §1
Rotating rod test: The same mouse was placed on the rotating rod to observe whether it falls or not within 2 minutes.
as §2

[5] = tested on: male dd mice; test: Muscle relaxant activity: slant test; type: in vivo; details: 300 mg/kg p.o., 5 mice per group
Procedure: as §1
Slant test: Each mouse was placed on a wire net inclined at an angle of 45° to observe whether it falls or not.
as §2

[6] = tested on: male Wistar rats; test: Anti-inflammatory activity: carrageenin edema method; type: in vivo; details: Rattus norvegicus, po, 3 hours after carrageenin, read-out: Inhibition ratio (paw swelling, vs control)
Procedure: In this experiment, 5 male Wistar rats weighing 140±10 g were used as one group. Sixty minutes after oral administration of each drug to each animal, 0.1 ml of a 1% carrageenin solution as a phlogistic agent was injected into the plantar surface of the right hind paw of the animal to induce inflammation. The volume of the paw was measured before and 3 hours after the injection of the phlogistic agent. Swelling ratio and inhibition ratio in comparison with control group were calculated.

[7] = tested on: male dd mice; test: Analgesic activity: acetic acid writhing; type: in vivo; details: Mus musculus, po, 1 h, acetic acid i.p. after 60 min, read-out: Inhibition ratio (writhes, vs control); for inhibition in vivo at 50 mg/kg: 50 mg/kg p.o.
Procedure: In this experiment, 10 male dd mice weighing 20±1 g were used as one group for examination of analgesic activity. Sixty minutes after oral administration of each drug to each animal, 0.2 ml of a 0.7% acetic acid solution was intraperitoneally administered to the animal. Starting 10 minutes after the administration of acetic acid, the number of writhes occurred in 10 minutes was counted. Average number of writhes and inhibition ratio in comparison with control group were calculated.

## CN(C)CCCOc1nn(Cc2ccccc2)c2ccccc12 [Benzydamine hydrochloride, benzydamine hydrochloride, reference compound]
[1]; 300 mg/kg p.o., 1 hr
  Number of dropped mice, traction test: 5 mice
[1]; 300 mg/kg p.o., 2 hr
  Number of dropped mice, traction test: 1 mice
[1]; 300 mg/kg p.o., 3 hr
  Number of dropped mice, traction test: 0 mice
[2]
  responders at 50 mg/kg: 35%
  responders at 75 mg/kg: 90%
[2]; 100 mg/kg p.o.
  responders at 100 mg/kg: 100%
[2]; 300 mg/kg p.o.
  responders at 300 mg/kg: 100%
[3]
  LD50 at 168 h: 500 to 1000 mg/kg
[4]; 300 mg/kg p.o., 1 hr
  Number of dropped mice, rotating rod test: 5 mice
[4]; 300 mg/kg p.o., 2 hr
  Number of dropped mice, rotating rod test: 3 mice
[4]; 300 mg/kg p.o., 3 hr
  Number of dropped mice, rotating rod test: 2 mice
[5]; 1 hr
  Number of dropped mice, slant test: 4 mice
[5]; 2 hr
  Number of dropped mice, slant test: 2 mice
[5]; 3 hr
  Number of dropped mice, slant test: 0 mice
[6]; 100 mg/kg p.o.
  inhibition in vivo at 100 mg/kg: 14.4%
[6]; 200 mg/kg p.o.
  inhibition in vivo at 200 mg/kg: 23.5%
[7]
  inhibition in vivo at 50 mg/kg: 0%
[7]; 200 mg/kg p.o.
  inhibition in vivo at 200 mg/kg: 83.7%

## Cc1c(C(=O)N(C)C)oc2cccc(Cl)c12 [Compound (A), 4-Chloro-N,N,3-trimethyl-benzo[b]furan-2-carboxamide]
[1]; 75 mg/kg p.o., 1 hr
  Number of dropped mice, traction test: 3 mice
[1]; 75 mg/kg p.o., 2 hr
  Number of dropped mice, traction test: 0 mice
[1]; 75 mg/kg p.o., 3 hr
  Number of dropped mice, traction test: 0 mice
[1]; 150 mg/kg p.o., 1 hr
  Number of dropped mice, traction test: 5 mice
[1]; 150 mg/kg p.o., 2 hr
  Number of dropped mice, traction test: 3 mice
[1]; 150 mg/kg p.o., 3 hr
  Number of dropped mice, traction test: 1 mice
[2]; 25 mg/kg p.o.
  responders at 25 mg/kg: 10%
[2]
  responders at 50 mg/kg: 30%
  responders at 75 mg/kg: 80%
[3]
  LD50 at 168 h: > 1000 mg/kg
[4]; 75 mg/kg p.o., 1 hr
  Number of dropped mice, rotating rod test: 3 mice
[4]; 75 mg/kg p.o., 2 hr
  Number of dropped mice, rotating rod test: 2 mice
[4]; 75 mg/kg p.o., 3 hr
  Number of dropped mice, rotating rod test: 1 mice
[4]; 150 mg/kg p.o., 1 hr
  Number of dropped mice, rotating rod test: 5 mice
[4]; 150 mg/kg p.o., 2 hr
  Number of dropped mice, rotating rod test: 5 mice
[4]; 150 mg/kg p.o., 3 hr
  Number of dropped mice, rotating rod test: 2 mice
[5]; 1 hr
  Number of dropped mice, slant test: 4 mice
[5]; 2 hr
  Number of dropped mice, slant test: 3 mice
[5]; 3 hr
  Number of dropped mice, slant test: 3 mice
[6]; 150 mg/kg p.o.
  inhibition in vivo at 150 mg/kg: 33.4%
[7]
  inhibition in vivo at 50 mg/kg: 60.6%
[7]; 150 mg/kg p.o.
  inhibition in vivo at 150 mg/kg: 100%
